Data on eleven compounds can be found in patent publication US9340554B2, “IRAK inhibitors and uses thereof” (Nimbus Iris, Inc., priority 2011, dated 2016).

Each structure is given as a SMILES string. Read-outs that look alike come from different tables or passages of the source.

The target of one test is T1, IRAK4 (Homo sapiens, UniProt Q9NWZ3).
T1 construct: purchased CARNA Bioscience 09-145
T1 sequence (Q9NWZ3 1-460): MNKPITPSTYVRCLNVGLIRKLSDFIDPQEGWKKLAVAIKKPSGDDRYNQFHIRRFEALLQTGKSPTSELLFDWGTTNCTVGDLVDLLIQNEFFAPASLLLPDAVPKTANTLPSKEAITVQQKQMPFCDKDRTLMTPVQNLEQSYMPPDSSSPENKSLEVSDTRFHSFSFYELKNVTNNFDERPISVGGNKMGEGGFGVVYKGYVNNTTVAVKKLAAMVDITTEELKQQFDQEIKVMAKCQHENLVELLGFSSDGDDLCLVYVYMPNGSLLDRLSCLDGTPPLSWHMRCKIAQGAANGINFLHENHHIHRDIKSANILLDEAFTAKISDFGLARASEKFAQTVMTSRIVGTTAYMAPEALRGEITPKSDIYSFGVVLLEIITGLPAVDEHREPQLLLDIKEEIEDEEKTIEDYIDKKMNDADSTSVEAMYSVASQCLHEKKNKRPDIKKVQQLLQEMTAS
Put plainly: IRAK-4 activity inhibition assay (Caliper, Peptide 8, 37 μM ATP). In kind it is biochemical. To be noted: 3.5 nM IRAK4, 1.5 μM Peptide 8, 37 μM ATP, 28° C. 40 minutes; read-out: IRAK-4 activity inhibition IC50.

The subject of test [1] is LPS induced TNFα production in THP-1 cells. The experiment in a line: LPS induced THP-1 cell cytokine production assay, TNFα (HTRF). In kind it is cell-based. As to conditions: Homo sapiens. The method, then:
(§1) Provided compounds were also assayed in an LPS (Lipopolysacharide) induced THP-1 cell cytokine (TNFα and IL8) production assay. The protocol for this assay was as follows below. THP-1 cells from ATCC (TIB-202) were cultured in RPMI Medium 1640 (Invitrogen, Cat No. […] LPS-EK ultra pure (Invivogen, Cat No. tlrl-peklps) was used to induce IL8 and TNFα production, that was detected in the cell culture supernatant by IL8 HTRF kit (Cisbio, Cat No. 62IL8PEB) and TNFα HTRF kit (Cisbio, Cat No. 62[…]), as per manufacturer instructions. Cells were cultured in 96 well assay plates at 100,000 cells per well, and compounds diluted in final 0.3% DMSO were pre-incubated with cells for 1 hour prior to stimulation with 300 ng/mL LPS. […] The compound numbers correspond to the compound numbers in Table 1.
In general terms: TR-FRET usually uses a lanthanide donor and a delayed reading to cut background.

Test [2] deals with LPS induced IL8 production in THP-1 cells. Put plainly: LPS induced THP-1 cell cytokine production assay, IL8 (HTRF). In kind it is cell-based. As to conditions: Homo sapiens. The protocol: as §1
Setting [3] is: THP-1 cells, 300 ng/mL LPS, 1 hour pre-incubation, supernatant at 5 hours, read-out: TNFα production IC50.
[4] abbreviates: THP-1 cells, 300 ng/mL LPS, 1 hour pre-incubation, supernatant at 5 hours / 16 hours, read-out: IL8 production IC50.

For the compound `CN(CC(=O)N1CCCC1)[C@H]1CC[C@H](Oc2ncnc3sc4c(c23)CCC4)CC1` [Compound I-133], the results for the 50% inhibitory concentration (IC50) (at IRAK4; in test [1] (setting [3]); in test [2] (setting [4])) were less than 5 µM, 1 to 5 µM and 1 to 5 µM, respectively.
On to `CN(C)[C@H]1CC[C@H](Nc2nc(Nc3ccccc3)nc3sc4c(c23)CCC4)CC1` [Compound I-201, 12-N-[4-(dimethylamino)cyclohexyl]-10-N-phenyl-7-thia-9,11-diazatricyclo[6.4.0.0[2,6]]dodeca-1(8),2(6),9,11-tetraene-10,12-diamine], for which the IC50 in test [1] (setting [3]) and in test [2] (setting [4]) was 1 to 5 µM each time.
For the compound `CN(C)[C@H]1CC[C@H](Nc2ncnc3sc4c(c23)CCC4)CC1` [Compound I-12, trans-N^1-(6,7-dihydro-5H-cyclopenta[4,5]thieno[2,3-d]pyrimidin-4-yl)-N^4,N^4-dimethylcyclohexane-1,4-diamine], the half-inhibitory concentration (IC50) (usually the concentration that inhibits the measured activity by half) in test [1] (THP-1, read-out: TNFα production IC50) lay within 0.5 to 1 µM; in test [2] (THP-1, read-out: IL8 production IC50) it was 0.5 to 1 µM.
On to `CN(CC(=O)N1CCCC1)[C@H]1CC[C@H](Nc2ncnc3sc4c(c23)CCC4)CC1` [Compound I-124, 2-[methyl[4-([7-thia-9,11-diazatricyclo[6.4.0.0[2,6]]dodeca-1(12),2(6),8,10-tetraen-12-yl]amino)cyclohexyl]amino]-1-(pyrrolidin-1-yl)ethan-1-one], for which the IC50 at IRAK4 is less than 5 µM; in test [1] (setting [3]), 1 to 5 µM; in test [2] (setting [4]) it was 0.5 to 1 µM.
In the case of `c1nc(N[C@H]2CC[C@H](N3CCOCC3)CC2)c2c3c(sc2n1)CCC3` [Compound I-149, N-((1r,4r)-4-morpholinocyclohexyl)-6,7-dihydro-5H-cyclopenta[4,5]thieno[2,3-d]pyrimidin-4-amine], the half-maximal inhibitory concentration (IC50) on IRAK4 is less than 5 µM.
For the compound `c1nc(NCCN2CCNCC2)c2c3c(sc2n1)CCC3` [Compound I-147, N-(2-(piperazin-1-yl)ethyl)-6,7-dihydro-5H-cyclopenta[4,5]thieno[2,3-d]pyrimidin-4-amine], the IC50 at IRAK4 was greater than 50 µM.
Consider `O[C@H]1CC[C@H](Nc2ncnc3sc4c(c23)CCC4)CC1` [Compound I-7, trans-4-((6,7-dihydro-5H-cyclopenta[4,5]thieno[2,3-d]pyrimidin-4-yl)amino)cyclohexanol], for which the IC50 at IRAK4 fell in the range of 5 to 20 µM.
Turning to `CC(C)N[C@H]1CC[C@H](Nc2ncnc3sc4c(c23)CCC4)CC1` [Compound I-157, 1-N-(propan-2-yl)-4-N-[7-thia-9,11-diazatricyclo[6.4.0.0^[2,6]]dodeca-1(8),2(6),9,11-tetraen-12-yl]cyclohexane-1,4-diamine], the IC50 on IRAK4 was less than 5 µM.
With `O=C(CN(CC(=O)N1CCCC1)[C@H]1CC[C@H](Nc2ncnc3sc4c(c23)CCC4)CC1)N1CCCC1` [Compound I-136, trans-2-[[2-oxo-2-(pyrrolidin-1-yl)ethyl][4-([7-thia-9,11-diazatricyclo[6.4.0.0[2,6]]dodeca-1(8),2(6),9,11-tetraen-12-yl]amino)cyclohexyl]amino]-1-(pyrrolidin-1-yl)ethan-1-one], the IC50 at IRAK4 lay within 5 to 20 µM.
On the same count and under the same terms, the value for `CN(CCc1ccccn1)[C@H]1CC[C@H](Nc2ncnc3sc4c(c23)CCC4)CC1` [Compound I-106, 1-N-methyl-1-N-[2-(pyridin-2-yl)ethyl]-4-N-[7-thia-9,11-diazatricyclo[6.4.0.0^[2,6]]dodeca-1(8),2(6),9,11-tetraen-12-yl]cyclohexane-1,4-diamine] was less than 5 µM; that for `Cc1sc2ncnc(N[C@H]3CC[C@H](N)CC3)c2c1C` [Compound I-57, trans-N^1-(5,6-dimethylthieno[2,3-d]pyrimidin-4-yl)cyclohexane-1,4-diamine] was less than 5 µM.
